Measured values taken from US20210177814A1, “USE OF GUANABENZ OR DERIVATES THEREOF FOR THE TREATMENT OF TYPE I IFN-DEPENDENT PATHOLOGIES” (INSERM (Institut National de la Santé et de la Recherche …, priority 2018, published 2021).
Entries after “also recorded” stand apart in the source; their conditions may differ.

Biological target: T1, TLR9 (Mus musculus, UniProt Q9EQU3)
T1 construct: from tissue; host or cells: whole animal: C57BL/6, FVB and FVB GADD34ΔC/ΔC mice
T1 sequence (Q9EQU3 26-1032): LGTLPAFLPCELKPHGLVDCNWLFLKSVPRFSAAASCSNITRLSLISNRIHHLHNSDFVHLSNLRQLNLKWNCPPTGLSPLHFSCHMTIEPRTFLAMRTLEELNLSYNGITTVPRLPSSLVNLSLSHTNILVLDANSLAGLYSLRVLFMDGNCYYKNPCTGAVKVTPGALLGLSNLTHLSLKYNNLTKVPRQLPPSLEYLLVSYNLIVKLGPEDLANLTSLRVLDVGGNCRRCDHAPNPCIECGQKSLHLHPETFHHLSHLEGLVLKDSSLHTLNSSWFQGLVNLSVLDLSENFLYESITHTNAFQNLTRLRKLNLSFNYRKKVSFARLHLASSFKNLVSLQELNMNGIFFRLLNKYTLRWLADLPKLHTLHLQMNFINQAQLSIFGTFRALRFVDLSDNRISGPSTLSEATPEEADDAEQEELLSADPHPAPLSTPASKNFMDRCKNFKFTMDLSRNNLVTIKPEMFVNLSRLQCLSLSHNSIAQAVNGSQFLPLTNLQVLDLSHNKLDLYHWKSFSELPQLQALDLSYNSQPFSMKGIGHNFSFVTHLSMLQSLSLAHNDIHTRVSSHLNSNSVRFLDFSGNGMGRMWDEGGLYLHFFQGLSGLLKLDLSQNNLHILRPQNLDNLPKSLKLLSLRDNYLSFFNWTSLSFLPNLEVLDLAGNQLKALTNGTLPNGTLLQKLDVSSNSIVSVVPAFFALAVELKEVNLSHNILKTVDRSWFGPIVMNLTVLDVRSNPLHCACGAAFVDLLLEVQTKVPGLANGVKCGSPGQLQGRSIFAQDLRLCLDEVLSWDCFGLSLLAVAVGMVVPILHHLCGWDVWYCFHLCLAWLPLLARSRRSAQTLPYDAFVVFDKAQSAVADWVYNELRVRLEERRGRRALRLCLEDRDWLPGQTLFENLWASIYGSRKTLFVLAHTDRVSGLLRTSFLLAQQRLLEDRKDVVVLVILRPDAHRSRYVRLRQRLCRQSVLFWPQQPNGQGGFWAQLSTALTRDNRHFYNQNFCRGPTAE
Test: Cytokine production and gene expression in sorted Flt3L-DC pDCs activated with CpG ODN 1585
Assay type: cell-based
Method: FIG. 1: Guanabenz inhibits TLR3 and TLR9 activation in mouse Flt3-L DCs and human blood pDCs. A) Sorted bone marrow derived Flt3L-DCs were activated for 6 h with 10 μg/mL poly I:C LMW (TLR3 in DC1) or 1 μM ODN 1585 (TLR9 in pDCs). GBZ was added at 50 μM and inhibited IFN-β and Interleukin-6 (IL-6) production in activated cells. B) […], hTLR3, hTLR9 and hTLR7 expressed in the reporter HEK-Blue™ cells are inhibited by GBZ. TLR-expressing HEK-Blue™ cells were respectively activated with 100 ng/mL LPS, 10 μg/mL poly I:C LMW, 2.5 μM ODN 2006 or 5 μg/mL imiquimod, respectively. GBZ was added at 50 μM. TLR activity was measured indirectly through SEAP activity as absorbance at 405 nm. GBZ inhibited human TLR3, TLR7 and TLR9 signaling, but not TLR4._C) Human primary pDCs were isolated from blood and activated either with 3 μM CpG ODN 2216 (top) or with 2% of anti-DNA IgG containing serum from lupus patients (bottom). GBZ was added at 50 μM. Protein concentration of IFN-α and TNF-α secreted were measured at the indicated time points or at 16 h. Statistical significance was assigned using two tailed t-test on at least n=3 independent experiments (* p<0.05; ** p<0.005; ***p<0.0005).
BM-derived DCs were differentiated in vitro from the bone marrow of 6-8 weeks old male mice, using either FLT3 ligand or GM-CSF. Flt3L-DCs were used for experiments between days 6 and 7. Flt3L was produced using B16-Flt3L hybridoma cells. Bone marrow progenitors were plated at 1.5 10^6 cells/ml, 4 ml/well in 6 well plate, and cultivated with RPMI (GIBCO), 10% FCS (Sigma Aldrich), 100 units/ml penicillin and 100 μg/ml streptomycin (GIBCO), 50 μM b-mercaptoethanol (VWR) and Flt3L. For sorted Flt3L-DCs, cells were gently harvested at day 7 with cold PBS 2% FCS, centrifuged 1200 rpm 5 min at 4° C., counted and stained with for 30 mins at 4° C. Cells were sorted with the FACS ARIASorp. Cells were kept on ice all the time. […]
ODN 2006, 2216, 1585 and 1826, Poly I:C High and Low Molecular Weight are from InvivoGen, San Diego, Calif.; lipopolysaccharide (Escherichia coli 055:B5), clonidine, chloroquine, D-(+)-Galactosamine hydrochloride and 25-HC are from Sigma Aldrich; Guanabenz is from Tocris Bioscience. For quantitative PCR, total RNAs were extracted and purified using the RNeasy Mini Kit (Qiagen). […] Each gene transcripts were quantified by SYBR Green method with 7500Fast (Applied Biosystems). The relative amount of each transcript was determined by normalizing to internal housekeeping gene expression.
Mouse IFN-β quantification in culture supernatant was performed using the Mouse Interferon Beta ELISA kit (PBL InterferonSource); mouse IL-6, TNFα, IL-10, human TNFα and human IFNα were quantified using ELISA kit (eBioscience) respectively, according to manufacturer instructions. […]

[1] = sorted pDCs, 1 μM ODN 1585 6 h, GBZ 50 μM

NC(N)=N/N=C/c1c(Cl)cccc1Cl [GBZ, 2-(2,6-dichlorobenzylidene)-hydrazinecarboximidamide]
transcriptional response to CpG ODN (ifna4, Tnfa, isg15, Il12 by qPCR) (pDC, data not shown): inhibited completely
impact on cell fitness (sorted cDC1 and pDCs treated with GBZ): without any impact
IFN-β production [1]: nearly abrogated; also recorded: inhibited
IL-6 production [1]: nearly abrogated; also recorded: inhibited
